Target: human PCSK9 (Homo sapiens, UniProt Q8NBP7)
Test: PCSK9 ligand binding assay (TR-FRET): interference with binding of human PCSK9 to human LDLR
Details: for IC50: Human PCSK9 Alexa Fluor 647 / Human LDLR extracellular domain-Europium Kryptate; for Max % inhibition: efficacy (Amax), 100% = 1 uM unlabeled human PCSK9, 0% = DMSO
Outline: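 Read-out was TR-FRET ratio (665 nm over 615 nm, 330 nm excitation) between Alexa Fluor 647-human PCSK9 (16 nM added) and Europium Kryptate-human LDLR ectodomain (4 nM added). Compound and PCSK9 were mixed 30 min before LDLR, then incubated 2 h. Inhibition was normalised to DMSO and unlabelled-PCSK9 controls, giving IC50 and Amax.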

Chain of human PCSK9 (Q8NBP7 153-692): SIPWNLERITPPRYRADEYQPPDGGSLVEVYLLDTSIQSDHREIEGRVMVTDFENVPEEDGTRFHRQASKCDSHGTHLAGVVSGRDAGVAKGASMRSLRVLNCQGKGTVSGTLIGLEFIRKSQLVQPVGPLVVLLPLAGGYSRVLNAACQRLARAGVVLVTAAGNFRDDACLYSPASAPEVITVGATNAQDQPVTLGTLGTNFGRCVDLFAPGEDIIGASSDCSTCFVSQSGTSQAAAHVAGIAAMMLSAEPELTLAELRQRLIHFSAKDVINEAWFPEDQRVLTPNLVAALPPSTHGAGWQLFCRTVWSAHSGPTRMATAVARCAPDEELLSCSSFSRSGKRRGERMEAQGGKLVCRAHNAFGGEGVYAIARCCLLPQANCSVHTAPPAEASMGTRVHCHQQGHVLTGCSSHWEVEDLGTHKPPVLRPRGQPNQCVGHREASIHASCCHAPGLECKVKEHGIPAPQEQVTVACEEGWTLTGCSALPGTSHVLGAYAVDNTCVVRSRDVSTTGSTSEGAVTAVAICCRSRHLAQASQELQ
Chain of human PCSK9 (Q8NBP7 31-152 partner limits assumed): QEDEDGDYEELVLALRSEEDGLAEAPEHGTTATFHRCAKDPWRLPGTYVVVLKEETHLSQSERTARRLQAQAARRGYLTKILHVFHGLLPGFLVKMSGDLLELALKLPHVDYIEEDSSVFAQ

SMILES | IC50 [nM] | Max % inhibition [%]
C[C@H](NCc1ccc(Cl)cc1Oc1ccc(-c2cnc(CN(C)C)n2C)cc1)C(=O)N[C@H]1COC(=O)C[C@@H](Cc2ccccc2)C(=O)N(C)[C@@]2(Cc3ccc(Cl)cc3)CCCN(C2)C1=O [Compound 130, (2S)-N-((3S, 8R, 11R)-8-benzyl-11-(4-chlorobenzyl)-10-methyl-2,6,9-trioxo-5-oxa-1,10-diazabicyclo[9.3.1]pentadecan-3-yl)-2-((4-chloro-2-(4-(2-((dimethylamino)methyl)-1-methyl-1H-imidazol-5-yl)phenoxy)benzyl)amino)propanamide] | 879 | 99.3
CC(=O)C[C@@H]1NC(=O)[C@H](C)N(Cc2ccc(Cl)cc2Oc2ccc(-c3cnc(CN4CCCC4)n3C)cc2)C(=O)C[C@@H](Cc2ccccc2)C(=O)N(C)C[C@@H](Cc2ccc(Cl)cc2)N(C)C1=O.Cl [Compound 129, (2S,5S,8R,12R)-12-benzyl-1-(4-chloro-2-(4-(1-methyl-2-(pyrrolidin-1-ylmethyl)-1H-imidazol-5-yl)phenoxy)benzyl)-8-(4-chlorobenzyl)-2,7,10-trimethyl-5-(2-oxopropyl)-1,4,7,10-tetraaza-cyclotetradecane-3,6,11,14-tetraone hydrochloride] | 205 | 87.3
COC[C@@H]1NC(=O)[C@H](C)N(Cc2c(F)cc(Cl)cc2Oc2ccc(-c3cnc(CN(C)C4CCC4)n3C)cc2)C(=O)C[C@@H](CC(F)(F)F)C(=O)N2CCC[C@@](Cc3ccc(Cl)cc3)(C2)NC1=O [Compound 160, (3S, 7S, 10S, 13R)-6-(4-chloro-2-(4-(2-((cyclobutyl(methyl)amino)methyl)-1-methyl-1H-imidazol-5-yl)phenoxy)-6-fluorobenzyl)-13-(4-chlorobenzyl)-10-(methoxymethyl)-7-methyl-3-(2,2,2-trifluoroethyl)-1,6,9,12-tetraazabicyclo[11.3.1]heptadecane-2,5,8,11-tetraone] | 1.63 | 113.8
COC[C@@H]1NC(=O)[C@H](C)N(Cc2ccc(Cl)cc2Oc2ccc(-c3cnc(CN4CCCC4)n3C)cc2)C(=O)C[C@@H]([C@H]2CCc3ccccc32)C(=O)N(CC2(C)CC2)C[C@@H](Cc2ccc(Cl)cc2)N(C)C1=O.Cl [Compound 115, (2S, 5S, 8R, 12S)-1-(4-chloro-2-(4-(1-methyl-2-(pyrrolidin-1-ylmethyl)-1H-imidazol-5-yl)phenoxy)benzyl)-8-(4-chlorobenzyl)-12-((R)-2,3-dihydro-1H-inden-1-yI)-5-(methoxymethyl)-2,7-dimethyl-10-((1-methylcyclopropyl)methyl)-1,4,7,10-tetraazacyclotetradecane-3,6,11,14-tetraone] | 25 | 99.0
COC[C@@H]1NC(=O)[C@H](C)N(Cc2c(F)cc(Cl)cc2Oc2ccc(-c3cnc(CN(C)C)n3C)cc2)C(=O)C[C@@H](C2CCOCC2)C(=O)N2CCC[C@@](Cc3ccc(Cl)cc3)(C2)N(C)C1=O [Compound 174, (3S, 7S, 10S, 13R)-6-(4-chloro-2-(4-(2-((dimethylamino)methyl)-1-methyl-1H-imidazol-5-yl)phenoxy)-6-fluorobenzyl)-13-(4-chlorobenzyl)-10-(methoxymethyl)-7,12-dimethyl-3-(tetrahydro-2H-pyran-4-yl)-1,6,9,12-tetraazabicyclo[11.3.1]heptadecane-2,5,8,11-tetraone] | 2.2 | 110.7
C[C@H]1C(=O)N[C@@H](CO)C(=O)N[C@@]2(Cc3ccc(Cl)cc3)CCCN(C2)C(=O)[C@H]([C@@H]2CCc3ccccc32)CC(=O)N1Cc1ccc(Cl)cc1Oc1ccc(-c2cnc(C3CN(C)C3)n2C)cc1 [Compound 69, (3S, 7S, 10S, 13R)-6-(4-chloro-2-(4-(1-methyl-2-(1-methylazetidin-3-yl)-1H-imidazol-5-yl)phenoxy)benzyl)-13-(4-chlorobenzyl)-3-((S)-2,3-dihydro-1H-inden-1-yl)-10-(hydroxymethyl)-7-methyl-1,6,9,12-tetraazabicyclo[11.3.1]heptadecane-2,5,8,11-tetraone] | 0.781 | 70.1
COC[C@@H]1NC(=O)[C@H](C)N(Cc2ccc(Cl)cc2Oc2ccc(-c3cnc(CN4CCCC4)n3C)cc2)C(=O)C[C@@H](Cc2ccccc2)C(=O)N(CCCN(C)C)C[C@@H](Cc2ccc(Cl)cc2)N(C)C1=O.Cl [Compound 116, (2S, 5S, 8R, 12R)-12-benzyl-1-(4-chloro-2-(4-(1-methyl-2-(pyrrolidin-1-ylmethyl)-1H-imidazol-5-yl)phenoxy)benzyl)-8-(4-chlorobenzyl)-10-(3-(dimethylamino)propyl)-5-(methoxymethyl)-2,7-dimethyl-1,4,7,10-tetraazacyclotetradecane-3,6,11,14-tetraone] | 19.7 | 104.9
CC[C@@H]1CC(=O)N(Cc2ccc(Cl)cc2Oc2ccc(-c3cnc(CN4CCCC4)n3C)cc2)[C@@H](C)C(=O)N[C@@H](CO)C(=O)N(C)[C@H](Cc2ccc(Cl)cc2)CNC1=O.Cl [Compound 124, (2S, 5S, 8R, 12R)-1-(4-chloro-2-(4-(1-methyl-2-(pyrrolidin-1-ylmethyl)-1H-imidazol-5-yl)phenoxy)benzyl)-8-(4-chlorobenzyl)-12-ethyl-5-(hydroxymethyl)-2,7-dimethyl-1,4,7,10-tetraazacyclotetradecane-3,6,11,14-tetraone] | 102 | 96.8
COC[C@@H]1NC(=O)[C@H](C)N(Cc2ccc(Cl)cc2Oc2ccc(-c3cnc(CN(C)C)n3C)nc2)C(=O)C[C@@H](CC(F)(F)F)C(=O)N2CCC[C@@](Cc3ccc(Cl)cc3)(C2)N(C)C1=O [Compound 12, (3S, 7S, 10S, 13R)-6-(4-chloro-2-((6-(2-((dimethylamino)methyl)-1-methyl-1H-imidazol-5-yl)pyridin-3-yl)oxy)benzyl)-13-(4-chlorobenzyl)-10-(methoxymethyl)-7,12-dimethyl-3-(2,2,2-trifluoroethyl)-1,6,9,12-tetraazabicyclo[11.3.1]heptadecane-2,5,8,11-tetraone] | 0.152 | 112.8

The remaining lines, values ahead:

IC50 [nM] | Max % inhibition [%] | SMILES
0.75 | 111.4 | COC[C@@H]1NC(=O)[C@H](C)N(Cc2ccc(Cl)cc2Oc2ccc(-c3cnc(CNC(C)(C)C)n3C)cc2)C(=O)C[C@@H](Cc2ccccc2)C(=O)N2CCC[C@@](Cc3ccc(Cl)cc3)(C2)NC1=O [Compound 149, (3R, 7S, 10S, 13R)-3-benzyl-6-(2-(4-(2-((tert-butylamino)methyl)-1-methyl-1H-imidazol-5-yl)phenoxy)-4-chlorobenzyl)-13-(4-chlorobenzyl)-10-(methoxymethyl)-7-methyl-1,6,9,12-tetraazabicyclo[11.3.1]heptadecane-2,5,8,11-tetraone]
0.438 | 100.8 | C[C@H]1C(=O)N[C@@H](CO)C(=O)N[C@@]2(Cc3ccc(Cl)cc3)CCCN(C2)C(=O)[C@H](Cc2ccccc2)CC(=O)N1Cc1ccc(Cl)c(F)c1Oc1ccc(-c2cnc(CN(C)C)n2C)cc1 [Compound 25, (3R, 7S, 10S, 13R)-3-benzyl-6-(4-chloro-2-(4-(2-((dimethylamino)methyl)-1-methyl-1H-imidazol-5-yl)phenoxy)-3-fluorobenzyl)-13-(4-chlorobenzyl)-10-(hydroxymethyl)-7-methyl-1,6,9,12-tetraazabicyclo[11.3.1]heptadecane-2,5,8,11-tetraone]
0.558 | 106.4 | COC[C@@H]1NC(=O)[C@H](C)N(Cc2ccc(Cl)cc2Oc2ccc(-c3cnc(CN(C)C)n3C)cc2)C(=O)C[C@@H](Cc2cccc(C)n2)C(=O)N2CCC[C@@](Cc3ccc(Cl)cc3)(C2)NC1=O [Compound 4, (3R,7S,10S,13R)-6-(4-Chloro-2-(4-(2-((dimethylamino)methyl)-1-methyl-1H-imidazol-5-yl)phenoxy)benzyl)-13-(4-chlorobenzyl)-10-(methoxymethyl)-7-methyl-3-((6-methylpyridin-2-yl)methyl)-1,6,9,12-tetraazabicyclo[11.3.1]heptadecane-2,5,8,11-tetraone]
11.1 | 82.0 | C[C@H](O)[C@@H]1NC(=O)[C@H](C)N(Cc2ccc(Cl)cc2Oc2ccc(-c3cnc(CN(C)C)n3C)cc2)C(=O)C[C@@H](Cc2ccccc2)C(=O)N2CCC[C@@](Cc3ccc(Cl)cc3)(C2)NC1=O [Compound 109, (3R, 7S, 10S, 13R)-3-benzyl-6-(4-chloro-2-(4-(2-((dimethylamino)methyl)-1-methyl-1H-imidazol-5-yl)phenoxy)benzyl)-13-(4-chlorobenzyl)-10-((S)-1-hydroxyethyl)-7-methyl-1,6,9,12-tetraazabicyclo[11.3.1]heptadecane-2,5,8,11-tetraone]
0.351 | 110.0 | C[C@H]1C(=O)N[C@@H](CO)C(=O)N[C@@]2(Cc3ccc(Cl)cc3)CCCN(C2)C(=O)[C@H](Cc2ccccc2)CC(=O)N1Cc1c(F)cc(Cl)cc1Oc1ccc(-c2cnc(CN(C)C)n2C)cc1 [Compound 11, (3R, 7S, 10S, 13R)-3-benzyl-6-(4-chloro-2-(4-(2-((dimethylamino)methyl)-1-methyl-1H-imidazol-5-yl)phenoxy)-6-fluorobenzyl)-13-(4-chlorobenzyl)-10-(hydroxymethyl)-7-methyl-1,6,9,12-tetraazabicyclo[11.3.11]-heptadecane-2,5,8,11-tetraone]
0.452 | 113.9 | COC[C@@H]1NC(=O)[C@H](C)N(Cc2c(F)cc(Cl)cc2Oc2ccc(-c3cnc(CN(C)C)n3C)cc2)C(=O)C[C@@H](Cc2cccc[n+]2[O-])C(=O)N2CCC[C@@](Cc3ccc(Cl)cc3)(C2)N(C)C1=O [Compound 3, 2-(((3R, 7S, 10S, 13R)-6-(4-chloro-2-(4-(2-((dimethylamino)methyl)-1-methyl-1H-imidazol-5-yl)phenoxy)-6-fluorobenzyl)-13-(4-chlorobenzyl)-10-(methoxymethyl)-7,12-dimethyl-2,5,8,11-tetraoxo-1,6,9,12-tetraazabicyclo[11.3.1]heptadecan-3-yl)methyl)pyridine 1-oxide]

— patent US11813306B2, “Cyclic tetramer compounds as proprotein convertase subtilisin/kexin type 9 (PCSK9) inhibitors for the treatment of metabolic disorders” (NOVARTIS AG, priority 2018, dated 2023)
